Results: ChEMBL document CHEMBL5154651, “Substituent effect of benzyl moiety in nitroquinoxaline small molecules upon DNA binding: Cumulative destacking of DNA nucleobases leading to histone eviction” (Eur J Med Chem, 2022)
Blank lines part the entries; values can stand above or below the molecule they belong to. Calls of active or inactive are those of the source. No cut-off for these calls is given here.

How the values were obtained:
DNA [1] = assay: Induction of GC-rich pYUB12 plasmid DNA (unknown origin) unwinding assessed as DNA structural changes at DNA base-pair to compound ratio of 1:4 incubated for 16 hrs by mobility shift assay; type: nucleic-acid assay
GC rich DNA [2] = assay: Disruption of native ds-GC12 DNA (unknown origin) base stacking interaction assessed as appearance of ICD at 320 to 330 nm by circular dichroism analysis; type: nucleic-acid assay
GC rich DNA [3] = assay: Displacement of Ethidium bromide from native ds-GC12 short DNA (unknown origin) by Stern-Volmer quenching plot analysis; type: nucleic-acid assay
GC rich DNA [4] = assay: Disruption of native ds-GC12 DNA (unknown origin) base stacking interaction assessed as decrease in positive peak intensity at 283 nm by circular dichroism analysis; type: nucleic-acid assay
GC rich DNA [5] = assay: Disruption of native ds-GC12 DNA (unknown origin) base stacking interaction assessed as decrease in positive peak intensity at 283 nm at DNA base-pair to compound ratio of 1:4 by circular dichroism analysis; type: nucleic-acid assay
DNA [6] = assay: Induction of GC-rich pYUB12 plasmid DNA (unknown origin) unwinding assessed as DNA structural changes at DNA base-pair to compound ratio of 1:6 incubated for 16 hrs by mobility shift assay; type: nucleic-acid assay
HCT-116 = assay: Cytotoxicity against human HCT-116 cells assessed as reduction in cell viability incubated for 24 hrs by MTT assay; type: functional, cell-based; conditions: HCT-116, 24 h
DNA [7] = assay: Induction of GC-rich pYUB12 plasmid DNA (unknown origin) unwinding assessed as complete conformational change as condensed form at DNA base-pair to compound ratio of 1:2 incubated for 16 hrs by mobility shift assay; type: nucleic-acid assay
GC rich DNA [8] = assay: Disruption of native ds-GC12 DNA (unknown origin) base stacking interaction assessed as appearance of ICD at 325 nm by circular dichroism analysis; type: nucleic-acid assay
[9] = Induction of histone eviction from single assembled nucleosome (unknown origin) assessed as reduction in nucleosome band intensity at 75 uM incubated for 4 hrs by silver staining based gel electrophoresis assay
DNA [10] = assay: Induction of GC-rich pYUB12 plasmid DNA (unknown origin) unwinding assessed as complete structural change with DNA condensation by measuring increase in condensed DNA band intensity at DNA base-pair to compound ratio of 1:1.5 incubated for 16 hrs by mobility shift assay; type: nucleic-acid assay
GC rich DNA [11] = assay: Disruption of native ds-GC12 DNA (unknown origin) base stacking interaction assessed as DNA structural changes at DNA base-pair to compound ratio of 1:4 by circular dichroism analysis; type: nucleic-acid assay

SMILES: CN(C)CCCNc1nc2cc([N+](=O)[O-])ccc2nc1NCc1ccc([N+](=O)[O-])cc1
Activity (GC rich DNA [5]): Active | Activity (DNA [6]): Active | KSV (GC rich DNA [3]): < 1 10^4/M

SMILES: O=[N+]([O-])c1ccc2nc(NCc3ccccc3)c(N3CCCCC3)nc2c1
KSV (GC rich DNA [3]): 0.19 10^4/M | IC50 (HCT-116): > 50 µM

SMILES: CN(C)CCCNc1nc2cc([N+](=O)[O-])ccc2nc1NCc1ccc(C(F)(F)F)cc1
Activity (DNA [7]): Active | Activity (GC rich DNA [8]): Active | KSV (GC rich DNA [3]): 4.6 10^4/M | Activity [9]: Active | Activity (DNA [10]): Active

SMILES: COc1ccc(CNc2nc3ccc([N+](=O)[O-])cc3nc2NCCCN(C)C)cc1
Activity (GC rich DNA [5]): Active | Activity (DNA [6]): Active | KSV (GC rich DNA [3]): < 1 10^4/M

Next, values leading:

Activity (DNA [1]): Active | Activity (GC rich DNA [2]): Active | KSV (GC rich DNA [3]): 2.4 10^4/M | Activity (GC rich DNA [4]): Active
SMILES: CN(C)CCCNc1nc2cc([N+](=O)[O-])ccc2nc1NCc1ccc(Cl)cc1

KSV (GC rich DNA [3]): < 0.3 10^4/M
SMILES: CN(C)CCCNc1nc2cc([N+](=O)[O-])ccc2nc1NCc1ccco1

KSV (GC rich DNA [3]): < 0.3 10^4/M
SMILES: CN(C)CCCNc1nc2cc([N+](=O)[O-])ccc2nc1NCc1ccncc1

Activity (GC rich DNA [11]): Active | KSV (GC rich DNA [3]): < 0.3 10^4/M
SMILES: CN(C)CCCNc1nc2cc([N+](=O)[O-])ccc2nc1NCc1cccs1
